Data set [1] has as its target T1, rhodopsin/opsin (Mus musculus, UniProt P15409).
T1 construct: from tissue; host or cells: whole eyes of wild-type C57BL/6 female mice
Put plainly: Rhodopsin regeneration ratio of immunoaffinity-purified rhodopsin/opsin, single dose. Type of data set: in vivo. The protocol: Forty eight hr dark-adapted, 10-month-old mice were gavaged with a single dose (˜80 mg/kg body weight) of 9-cis-R-Ac or control vehicle and exposed to strong illumination for 20 min (500 cd·m^−2 that bleached ˜90% rhodopsin). Next, mice were dark-adapted for 16 hr after which various analyses were performed (FIG. 1A). […] To investigate whether 9-cis-retinal was utilized to form isorhodopsin and to assess how much unliganded opsin was present in the mouse eyes, rhodopsin, isorhodopsin and opsin were purified by immunoaffinity chromatography from treated and control groups of mice. […] After bleaching, 9-cis-retinal is bound to opsin even in the presence of a functional retinoid cycle that produces 11-cis-retinal to regenerate rhodopsin. Eyes from non-bleached or bleached and dark-adapted untreated mice contained a small amount of free opsin.
9-cis-R-Ac was prepared as previously described (Batten, M. L., et al. PLoS medicine 2, e333 (2005); Batten, M. L., et al. J Biol Chem 279, 10422-10432 (2004)). A dose of ˜80 mg/kg body weight of 9-cis-R-Ac in 150 μl vegetable oil was administered via gavage to each treated animal. Prior to single dose experiments (FIG. 1A, Table 1), 10-month-old mice were dark-adapted for more than 48 hr, gavaged with 9-cis-R-Ac or vehicle control solution 1 hr before bleaching, exposed to light for 20 min at 500 cd·m^−2 and dark-adapted for 16 hr before analysis.
Rhodopsin purification was done under dim red light as previously described (Zhu, L., et al. J Biot Chem, 279, 53828-53839 (2004)). […] Purified rhodopsin concentration was determined at 500 nm and total amount of opsin and rhodopsin at 280 nm with a Hewlett-Packard 8452A UV-visible spectrophotometer (Palczewski, K., Carruth, M. E., Adamus, G., McDowell, J. H. & Hargrave, P. A. Vision Research, 30, 1129-1137 (1990)). […]

Data set [2] can be described thus: Hepatic retinoic acid levels after long-term treatment. It is filed as in vivo, mouse. The note with it: all groups. The protocol:
To evaluate the safety of long-term administration of 9-cis-R-Ac, A2E accumulation was measured (FIG. 6A), because retinals spontaneously condense to this compound (Mata, N. L., Weng, J. & Travis, G. H. Proceedings of the National Academy of Sciences of the United States of America 97, 7154-7159 (2000); Parish, C. A., Hashimoto, M., Nakanishi, K., Dillon, J. & Sparrow, J. Proceedings of the National Academy of Sciences of the United States of America 95, 14609-14613 (1998)).
Analysis of retinoic acid in the liver was carried out as described before (Batten, M. L., et al. PLoS Medicine 2, e333 (2005)) by an Agilent 1100 HPLC with two tandem normal phase columns: a Varian Microsorb Silica 3 μm, 4.6×100 mm (Varian, Palo Alto, Calif.) and an Ultrasphere-Si, 5 μm, 4.6×250 mm column. An isocratic solvent system of 1000:4.3:0.675 hexane:2-propanol:glacial acetic acid (v/v) was used at a flow rate of 1 ml/min at 20° C. with detection at 355 nm. Calibration was done with standards of all-trans-RA and 9-cis-RA purchased from Sigma-Aldrich.

The test system of data set [3] is retina. In words: Retinal morphology (light and electron microscopy). Type of data set: in vivo, mouse. The protocol:
The thickness of each major layer in the retina was also similar between control and treated groups.
For light microscopy, mouse eyecups were fixed with 2.5% glutaraldehyde and 1.6% paraformaldehyde in 0.08 M 1,4-piperazinediethanesulfonate buffer (PIPES) (pH 7.4) containing 2% sucrose for ˜1 hr at room temperature followed by 23 hr at 4° C. Eyecups then were washed with 0.13 M sodium phosphate buffer (pH 7.3) and dehydrated through a CH3OH series and embedded in JB4 glycol metacrylate. Sections (6 μm) were stained by immersion in 5% Richardson's stain for 1.5-2 min at room temperature and destained in 0.13 M sodium phosphate (pH 7.3) until the retinal layers were visible by light microscopy (about 8-15 min). For transmission electron microscopy, mouse eyecups were analyzed as described previously (Maeda, A., et al. J Blot Chem 280, 18822-18832 (2005); Maeda, T., Lem, J., Palczewski, K. & Haeseleer, F. Investigative ophthalmology & visual science 46, 4320-4327 (2005)).

Entries after “also recorded” stand apart in the source; their conditions may differ.

T1 sequence (P15409 whole entry): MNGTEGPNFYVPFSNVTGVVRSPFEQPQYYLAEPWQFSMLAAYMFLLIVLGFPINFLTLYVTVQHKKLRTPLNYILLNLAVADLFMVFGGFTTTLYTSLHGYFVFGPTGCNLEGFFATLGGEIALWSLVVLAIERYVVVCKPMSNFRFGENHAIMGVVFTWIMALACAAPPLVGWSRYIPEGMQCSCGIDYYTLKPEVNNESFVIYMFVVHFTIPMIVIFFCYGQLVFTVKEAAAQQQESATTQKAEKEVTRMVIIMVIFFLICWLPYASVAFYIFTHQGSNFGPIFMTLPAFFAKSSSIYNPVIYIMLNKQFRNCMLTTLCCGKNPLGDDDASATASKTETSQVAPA

For the molecule `CC(=O)OC/C=C(C)/C=C/C=C(C)\C=C\C1=C(C)CCCC1(C)C` [9-cis-R-Ac, 9-cis-retinyl acetate], the “regeneration ratio of rhodopsin (absorbance 498 nm/280 nm)” value in data set [1] (single dose ~80 mg/kg gavage, 10-month-old mice, bleached, 16 hr dark-adapted, treated vs control, 80 mg/kg) was “significantly higher; also recorded: improved; also recorded: slightly higher”. In data set [1] (single dose, samples from treated mice), the “9-cis-retinal extracted from purified proteins (bound chromophore)” value is listed as “a significant amount of 9-cis-retinal was detected”. The “total amount of purified protein” value in data set [1] (single dose, treated vs control) is reported as “did not significantly differ”. Moreover, the “hepatic retinoic acid levels” value in data set [2] is listed as “below detectable levels; also recorded: did not accumulate”. The “retinal abnormalities by light microscopy” value in data set [3] (10 and 14 months of age) is on record as “no major abnormalities”. Besides, in data set [3] (control vs treated), the “EM analysis of the outer retina and RPE layer” value is given as “no gross differences”; the “thickness of each major layer in the retina” value was “similar”. The “lengths of rod outer segments (ROS)” value in data set [3] (control vs treated at 10 and 14 months of age) was “similar”.
